Assay results from patent publication US20050043371A1, “Aminoalcohol derivatives and their use as beta 3 adrenergic agonists” (Fujisawa Pharmaceutical Co. Ltd., priority 1999, published 2005).

Legend:
anesthetized dog = assay: Effect on the increase in intravesical pressure induced by carbachol in anesthetized dog; type: in vivo; settings: 0.01 mg/kg injected intravenously 5 minutes before carbachol (1.8 μg/kg); female Beagle dogs under halothane anesthesia; N = 3; P < 0.01 vs Control (4.5 ± 0.3)
Experimental: Effect on the increase in intravesical pressure induced by carbachol in anesthetized dog
Female Beagle dogs weighing 8.0-15.0 kg were fasted for 24 hours and maintained under halothane anesthesia. A 12F Foley catheter was lubricated with water soluble jelly, inserted into the urethral orifice and advanced approximately 10 cm until the balloon tip was placed well inside the bladder. The balloon was then inflated with 5 ml of room air and catheter slowly withdrawn just part the first resistance that is felt at the bladder neck. Urine was completely drained out through the catheter, and 30 ml of biological saline was infused. The catheter was connected to pressure transducer, and intravesical pressure was continuously recorded. The test compound was injected intravenously at 5 minutes before the administration of carbachol (1.8 μg/kg).

SMILES	melting point	Increase in intravescial pressure (mmHg) (anesthetized dog)
CC(CC(c1ccc(O)cc1)c1ccc(O)cc1)NC[C@H](O)COc1ccccc1.Cl (mixture of isomers) [Test Compound (1), (2S)-1-[[(2RS)-4,4-bis(4-hydroxyphenyl)-2-butyl]amino]-3-phenoxy-2-propanol hydrochloride] [listing 1 of 2 here]	73 °C (dec.)	
COc1ccc(C(C[C@H](C)NC[C@H](O)COc2ccccc2)c2ccc(OC)cc2)cc1.O=C(O)C(=O)O	79 to 94 °C	
COc1ccc(C(C[C@@H](C)NC[C@H](O)COc2ccccc2)c2ccc(OC)cc2)cc1.O=C(O)C(=O)O	121 to 123 °C	
CC(CC(c1ccc(O)cc1)c1ccc(O)cc1)NC[C@H](O)COc1ccccc1.Cl (mixture of isomers) [Test Compound (1), (2S)-1-[[(2RS)-4,4-bis(4-hydroxyphenyl)-2-butyl]amino]-3-phenoxy-2-propanol hydrochloride] [listing 2 of 2 here]		2.5 ± 0.3
